The source of these data is US8518973B2, “Compounds having 4-pyridylalkylthio group as a substituent” (Santen Pharmaceutical Co., Ltd., priority 2003, dated 2013).

By inhibition is commonly meant the percentage by which the read-out fell short of the control.

The structures appear in SMILES notation.

In experiment [1] the test system is B16 cells. Nature of the experiment: Tumor growth inhibitory action test using mouse cancer model (B16 cells). Format: in vivo. To be noted: po, 240 h; C57BL/6 mouse, B16 cells intradermally, 100 mg/kg/day orally once a day, ten days after injection, average of nine mice; read-out: Tumor tissue weight inhibition rate (%). On the procedure:
Tumor proliferation inhibitory action tests of the present compounds were carried out using a mouse cancer model, which is one of widely-used methods of evaluating in vivo anticancer effects of drugs.
As one of widely-used methods of evaluating anticancer effects of drugs, a tumor growth inhibitory action test using mouse cancer models was reported in Cancer Res., 59, 5209-5218(1999). According to the method described in the above-mentioned literature, tumor growth inhibitory action tests of the present compounds were carried out, their tumor tissue weight inhibition rates were calculated, and anticancer effects of the present compounds were evaluated using the obtained rates as indexes.
A 1% aqueous methyl cellulose solution was added to each test compound to suspend it with a sonicator thereby to prepare a 10 mg/ml test compound suspension.
Physiological saline was added to B16 cells to prepare a 3.3×10^7 cells/ml B16 cell suspension.
Calculation of Tumor Tissue Weight Inhibition Rate
Tumor tissue weight inhibition rates (the average of nine mice per group), which are indexes of anticancer effects were calculated, from the following calculation equation.

For experiment [2], the system named is VEGF-induced HUVEC growth. The experiment can be described thus: VEGF-induced HUVEC growth reaction evaluation system (cell growth inhibitory action test). Format: cell-based. Conditions: Homo sapiens, 72 h, 20 μg/ml test compound solution added 5 μl per well (100 μl), VEGF solution 400 ng/ml 5 μl per well, three days, absorbance at 450 nm, read-out: Cell growth inhibition rate (%).

Experiment [3] deals with rat adjuvant arthritis model. Nature of the experiment: Paw edema inhibitory action test using rat adjuvant arthritis model. Format: in vivo. Conditions: po, 504 h; Lewis rat, adjuvant-untreated (secondary inflammation) paw, 10 mg/kg/day orally once a day, 21 days after, average of eight rats; read-out: Paw edema inhibition rate (%). On the procedure: Paw edema inhibitory action tests of the present compounds were carried out using a rat adjuvant arthritis model, which is one of widely-used methods of evaluating in vivo antiarthritis effects of drugs.
As one of widely-used methods of evaluating antiarthritic effects of drugs, a paw edema inhibitory action test using rat adjuvant arthritis models is known. Paw edema inhibitory action tests of the present compounds were carried out, their paw edema inhibition rates were calculated, and antiarthritic effects of the present compounds were evaluated using the obtained rates as indexes.
A 1% aqueous methyl cellulose solution was added to each test compound to suspend it thereby to prepare a 2 mg/ml test compound suspension.
Liquid paraffin was added to Mycobacterium-butyricum to suspend it to prepare 6 mg/ml adjuvant.
Each paw edema inhibition rate of paw edema in an adjuvant-untreated paw (secondary inflammation paw) in each test compound administration group was calculated to paw edema in a secondary inflammation paw in a control group, and antiarthritic effects of the present compounds were evaluated using the obtained rates as indexes.
Paw edema rates were calculated from the following calculation equation 1, and then paw edema inhibition rates (the average of eight rats per group), which are indexes of the antiarthritic effects, were calculated from the calculation equation 2.

For experiment [4], the system named is rat choroidal neovascularization model. Nature of the experiment: Neovascularization incidence test using laser-induced rat choroidal neovascularization model. Format: in vivo. Conditions: po, 168 h; Brown Norway rat, krypton laser photocoagulation, 30 mg/kg/day orally once a day for seven days, ratio to vehicle administration group, average of three to four individuals and six to eight eyes; read-out: Ratio of neovascularization incidence rate (% of Control). On the procedure: Neovascularization incidence tests of the present compounds were carried out using a rat choroidal neovascularization model, which is one of widely-used methods of evaluating in vivo choroidal neovascularization inhibitory effects of drugs.
As one of widely-used methods of evaluating choroidal neovascularization inhibitory effects of drugs, a neovascularization incidence test using rat choroidal neovascularization models was reported in Graefe's Arch. Cli. Exp. Ophthalmol., 235, 313-319(1997). According to the method described in the above-mentioned literature, neovascularization incidence tests of the present compounds were carried out, ratios of neovascularization incidence rates of present compounds administration groups were calculated to a neovascularization incidence rate of vehicle administration group (control group), and choroidal neovascularization inhibitory effects of the present compounds were evaluated using the obtained ratios as indexes.
A 1% aqueous methyl cellulose solution was added to each test compound to suspend it thereby to prepare a 6 mg/10 ml test compound suspension.
• 1) A 7:1 mixed solution (1 ml/kg) of a 5% ketamine hydrochloride injection and a 2% xylazine hydrochloride injection was administered intramuscularly to rats (Brown Norway, male, eight weeks old, weight: 200 to 250 g) to anesthetize them systemically. • 2) A tropicamide-phenylephrine hydrochloride ophthalmic solution (trade name: Mydrin-P) was instilled into eyes to cause mydriasis, and then photocoagulation was performed in a Bruch's membrane of each rat using a krypton laser photocoagulation apparatus. The laser irradiation was carried out at eight spots per eye sparsely avoiding thick retinal vessels in a posterior section of ocular fundus and focusing on the retinal deep site. Photocoagulation conditions were adjusted to 100 μm of spot size, […] of output and 0.1 sec. of coagulation time. • 3) After the photocoagulation, the ocular fundus was photographed to confirm photocoagulation (laser irradiation) sites. […] Method of Evaluation • 1) Seven days after the photocoagulation, 0.1 ml of a 10% aqueous fluorescein solution was injected into a tail vein of the rat, and fluorescein fundus photography was performed. • 2) Next, in the fluorescein fundus photography, a spot where fluorescence leak was not observed was judged as negative, and a spot where fluorescence leak was observed was judged as positive. Photocoagulation sites where a little fluorescence leak was observed were judged as positive when two sites are present. • 3) Neovascularization incidence rates were calculated according to the calculation equation 1. Ratios of the neovascularization incidence rates of the test compound administration groups to that of the vehicle administration group were calculated according to the calculation equation 2 from neovascularization incidence rates of respective administration groups.
The values are the average of three to four individuals and six to eight eyes.

As to `Cc1cc(C)cc(NC(=O)c2cccnc2SCc2cc[n+]([O-])cc2)c1` [4-4, N-(3,5-Dimethylphenyl)-2-(1-oxopyridin-4-ylmethylthio)pyridine-3-carboxamide], the inhibition in vivo at 100 mg/kg/day in experiment [1] is 77%. In addition, the inhibition at 20 µg/mL (stock) in experiment [2] amounted to 100%. Further, the inhibition in vivo at 10 mg/kg/day in experiment [3] came to 21%. In addition, in experiment [4], the response vs control in vivo at 30 mg/kg/day amounted to 26%.

Consider `O=C(Nc1ccc(OC(F)(F)F)c(Cl)c1)c1cccnc1SCc1ccncc1` [1-137, N-(3-Chloro-4-trifluoromethoxyphenyl)-2-(4-pyridylmethylthio)pyridine-3-carboxamide], for which the inhibition in vivo at 100 mg/kg/day in experiment [1] was 66%. Also, the inhibition at 20 µg/mL (stock) in experiment [2] stood at 100%. The inhibition in vivo at 10 mg/kg/day in experiment [3] came to 39%. In addition, the response vs control in vivo at 30 mg/kg/day in experiment [4] was determined as 65%.

As for `O=C(Nc1cc2ccccc2cn1)c1cccnc1SCc1ccncc1` [1-22, N-(3-Isoquinolyl)-2-(4-pyridylmethylthio)pyridine-3-carboxamide], the inhibition in vivo at 100 mg/kg/day in experiment [1] turned out to be 45%. In addition, the inhibition at 20 µg/mL (stock) in experiment [2] came to 100%. In addition, the inhibition in vivo at 10 mg/kg/day in experiment [3] turned out to be 27%.
